Test results taken from patent publication US10124033B2, “Peptides and methods of use” (BAXALTA INCORPORATED, priority 2014, dated 2018).
Read-outs that look alike come from different tables or passages of the source. Non-standard residues stand in square brackets, D forms with d. Residues, ends and D or L forms follow the SMILES beside them. Tle = CC(C)(C)[C@H](N)C(=O)O

Tests used:
[1] = target: T1, Protein S/APC cofactor activity (Homo sapiens, UniProt P07225); assay: CAT assay: Protein S/APC-dependent thrombin generation in FVIII-inhibited plasma; type: biochemical; details: Protein S-depleted plasma supplemented with APC and Protein S, FVIII-inhibited
T1 construct: host or cells: plasma
T1 sequence (P07225 41-676 limits assumed): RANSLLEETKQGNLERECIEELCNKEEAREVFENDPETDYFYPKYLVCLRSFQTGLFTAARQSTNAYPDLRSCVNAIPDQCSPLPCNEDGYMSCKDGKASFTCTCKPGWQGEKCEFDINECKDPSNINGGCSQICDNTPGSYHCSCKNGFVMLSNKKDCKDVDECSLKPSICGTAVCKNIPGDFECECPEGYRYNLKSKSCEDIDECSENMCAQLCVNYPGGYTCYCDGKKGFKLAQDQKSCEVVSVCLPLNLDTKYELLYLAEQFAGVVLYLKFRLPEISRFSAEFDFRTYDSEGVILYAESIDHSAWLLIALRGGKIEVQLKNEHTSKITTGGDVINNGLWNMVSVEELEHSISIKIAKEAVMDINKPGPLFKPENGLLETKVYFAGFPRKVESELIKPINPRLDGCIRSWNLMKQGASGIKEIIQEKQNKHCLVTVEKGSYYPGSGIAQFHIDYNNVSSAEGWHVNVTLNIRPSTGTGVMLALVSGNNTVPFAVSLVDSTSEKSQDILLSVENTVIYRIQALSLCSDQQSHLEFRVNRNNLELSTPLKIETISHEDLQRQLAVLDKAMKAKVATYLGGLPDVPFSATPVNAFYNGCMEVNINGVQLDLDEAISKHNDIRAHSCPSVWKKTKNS
Description: Peptides also were tested for improvement of Protein S/APC-dependent thrombin generation in hemophilic plasma using a CAT assay. Protein S enhances the anticoagulation of APC in plasma. The CAT assay quantifies the effect of Protein S on APC-mediated thrombin generation initiated via the extrinsic coagulation pathway (Nicolaes, Blood Coagul. Fibrinolysis, 8:28 (1997)). APC (35 nM) and Protein S (25 nM) was added to Protein 5-depleted plasma, and plasma samples were incubated with high titer heat inactivated anti-human FVIII plasma raised in goat (4490 BU/ml; Baxter BioScience, Vienna, Austria; 50 BU/ml final plasma concentration). Thrombin formation in plasma was followed by calibrated automated thrombography (CAT) in a Fluoroskan Ascent® reader (Thermo Labsystems, Helsinki, Finland) and quantified via the thrombin peak-height. Thrombin generation was determined at high tissue factor (TF) concentration in the absence and in the presence of APC at a concentration that reduces the peak height to ˜20%. The inhibitory effect of peptides described herein on the APC cofactor activity of Protein S (PS) in plasma was measured in FVIII-inhibited pooled normal plasma supplemented with APC. Complete (100%) Protein S/APC inhibition is the height of the thrombin peak without addition of APC. Lack of (0%) PS/APC inhibition correlates to the thrombin peak-height value with a certain amount of APC. Peptides were ranked by their normalized values in comparison to the mean of wild-type controls including SD at two defined peptide concentrations (EC50 and EC90).
Exemplary conditions for the CAT assay are as follows. Protein S-depleted plasma was supplemented with 35 nM APC and […]. Stock APC was diluted with 10 pM TF and 15 μM PL. Lyophilized peptides were dissolved in 100% DMSO to a 5 mM stock concentration and further diluted with HNABSA5-buffer+0.1% Tween80. […] In a 96 well Immulon 2HB (transparent), U-bottom (ThermoElectron) plate was mixed 80 μl plasma (+CTI+Z994-5), 10 μl peptide dilution, and 10 μl APC-TF-PL-MIX or Calibrator. Thrombin generation was initiated by dispensing 20 μL of FluCa reagent containing fluorogenic substrate and HEPES-buffered CaCl2 (100 mM) into each well. Fluorescence intensity was recorded at 37° C. using the Fluoroskan Ascent® reader (filters 390 nm excitation and 460 nm emission). The parameters of the resulting thrombin generation curves were calculated using the Thrombinoscope™ software (Thrombinoscope) and thrombin calibrator to correct for inner filter and substrate consumption effects (Hemker, Pathophysiol Haemost Thromb, 33: 415 (2003)).

[2] = target: T2, Protein S (Homo sapiens, UniProt P07225); assay: LANCE IC50 assay (competition TR-FRET) with tracer JBS0684; type: binding
T2 sequence (P07225 41-676 limits assumed): T1 sequence (P07225 41-676 limits assumed)
Description: Peptides also were characterized in a competition, homogenous europium-based TR-FRET assay (LANCE IC50 assay) using JBS0684 as a tracer (i.e., competitor for Protein S binding). The following reagents were mixed together in a Perkin-Elmer ProxiPlate MTP well (indicated concentration is the final concentration): Eu-labeled Protein S (10 nM), Ulight™-labeled Streptavidin (100 nM), tracer (JBS0684 (300 nM)), and peptide (titrated in three-fold dilution steps). The final volume was 50 μl/well. The reaction mix was incubated for 1 hour at room temperature, then the fluorescence emission at 665 nm was recorded on a multi-mode reader (SpectraMax® M5, Molecular Devices) using the following instrument settings: Ex 340 nm, Em 665 nm, delay 50 μsec, integration 100 μsec, reads 100. Binding of tracer peptides to soluble europium-labeled Protein S was detected by Streptavidin labeled with an acceptor fluorophor (ULight™). Inhibition of tracer-binding to Protein S by a non-biotinylated peptide results in a decrease of TR-FRET between the Eu-labeled Protein S and ULight™-labeled Streptavidin. IC50 values were obtained from peptide titration curves at constant tracer concentration using non-linear regression of the fluorescence emission signals at 665 nm.

[3] = Table 4, multiple substitutions in JBS2572, read-out: LANCE IC50

With CC(=O)N[C@H](C(=O)NCC(=O)N[C@@H](Cc1c[nH]cn1)C(=O)N[C@H](C(=O)N[C@@H](CO)C(=O)N[C@@H](C)C(=O)NCC(=O)N[C@@H](Cc1c[nH]c2ccccc12)C(=O)N[C@@H](Cc1ccc(O)cc1)C(=O)N[C@@H](CC(=O)O)C(=O)N[C@@H](Cc1ccc(O)cc1)C(=O)N[C@@H](CC(N)=O)C(=O)N[C@@H](Cc1ccccc1)C(=O)N[C@@H](CC(=O)O)C(=O)N[C@@H](Cc1c[nH]cn1)C(=O)N[C@@H](Cc1ccc(O)cc1)C(=O)N[C@@H](CCCNC(=N)N)C(=O)N[C@@H](CCC(=O)O)C(=O)N[C@@H](Cc1ccccc1)C(=O)N[C@H](C(N)=O)[C@@H](C)O)C(C)C)[C@@H](C)O [JBS2512] (Ac-TGHVSAGWYDYNFDHYREFT-NH2) as the molecule, how does the EC50 [1] read?
The EC50 was 24 nM.

How did the IC50 [2, 3] turn out when CC(=O)N[C@H](C(=O)NCC(=O)N[C@@H](CC(C)C)C(=O)N[C@H](C(=O)N[C@@H](CCC(=O)O)C(=O)N[C@@H](C)C(=O)NCC(=O)N[C@@H](Cc1c[nH]c2ccccc12)C(=O)N[C@@H](Cc1ccc(O)cc1)C(=O)N[C@@H](CC(=O)O)C(=O)N[C@@H](Cc1ccc(O)cc1)C(=O)N[C@@H](CC(N)=O)C(=O)N[C@@H](Cc1ccccc1)C(=O)N[C@@H](CC(=O)O)C(=O)N[C@H](C(=O)N[C@@H](Cc1ccc(O)cc1)C(=O)N[C@@H](CCCNC(=N)N)C(=O)N[C@@H](CCC(=O)O)C(=O)N[C@@H](Cc1ccccc1)C(=O)N[C@H](C(N)=O)[C@@H](C)O)[C@@H](C)O)C(C)C)[C@@H](C)O [JBS3192] (Ac-TGLVEAGWYDYNFDTYREFT-NH2) was run?
The IC50 was 2.8 nM.

For CC(=O)N[C@H](C(=O)NCC(=O)N[C@@H](CC(C)C)C(=O)N[C@H](C(=O)N[C@@H](CCC(=O)O)C(=O)N[C@@H](C)C(=O)NCC(=O)N[C@@H](Cc1c[nH]c2ccccc12)C(=O)N[C@@H](Cc1ccc(O)cc1)C(=O)N[C@@H](CC(=O)O)C(=O)N[C@@H](Cc1ccc(O)cc1)C(=O)N[C@@H](CC(N)=O)C(=O)N[C@@H](Cc1ccccc1)C(=O)N[C@@H](CC(=O)O)C(=O)N[C@H](C(=O)N[C@@H](Cc1ccc(O)cc1)C(=O)N[C@@H](CCCNC(=N)N)C(=O)N[C@@H](CCC(=O)O)C(=O)N[C@@H](Cc1ccccc1)C(=O)N[C@H](C(N)=O)[C@@H](C)O)C(C)C)C(C)C)[C@@H](C)O [JBS3193] (Ac-TGLVEAGWYDYNFDVYREFT-NH2), which IC50 [2, 3] is on record?
The IC50 was 2.5 nM.

With CC(=O)N[C@H](C(=O)NCC(=O)N[C@@H](CC(C)C)C(=O)N[C@H](C(=O)N[C@@H](CO)C(=O)N[C@@H](C)C(=O)NCC(=O)N[C@@H](Cc1c[nH]c2ccccc12)C(=O)N[C@@H](Cc1ccc(O)cc1)C(=O)N[C@@H](CC(=O)O)C(=O)N[C@@H](Cc1ccc(O)cc1)C(=O)N[C@@H](CC(N)=O)C(=O)N[C@@H](CC(N)=O)C(=O)N[C@@H](CC(=O)O)C(=O)N[C@H](C(=O)N[C@@H](Cc1ccc(O)cc1)C(=O)N[C@@H](CCCNC(=N)N)C(=O)N[C@@H](CCC(=O)O)C(=O)N[C@@H](Cc1ccccc1)C(=O)N[C@H](C(N)=O)[C@@H](C)O)[C@@H](C)O)C(C)C)[C@@H](C)O [JBS3194] (Ac-TGLVSAGWYDYNNDTYREFT-NH2) as the molecule, how does the IC50 [2] read?
The IC50 was 1.8 nM.

With CC(=O)N[C@H](C(=O)NCC(=O)N[C@@H](CC(C)C)C(=O)N[C@H](C(=O)N[C@@H](CO)C(=O)N[C@@H](C)C(=O)NCC(=O)N[C@@H](Cc1c[nH]c2ccccc12)C(=O)N[C@@H](Cc1ccc(O)cc1)C(=O)N[C@@H](CC(=O)O)C(=O)N[C@@H](Cc1ccc(O)cc1)C(=O)N[C@@H](CC(N)=O)C(=O)N[C@@H](CC(N)=O)C(=O)N[C@@H](CC(=O)O)C(=O)N[C@H](C(=O)N[C@@H](Cc1ccc(O)cc1)C(=O)N[C@@H](CCCNC(=N)N)C(=O)N[C@@H](CCC(=O)O)C(=O)N[C@@H](Cc1ccccc1)C(=O)N[C@H](C(N)=O)[C@@H](C)O)C(C)C)C(C)C)[C@@H](C)O [JBS3195] (Ac-TGLVSAGWYDYNNDVYREFT-NH2) as the molecule, how does the IC50 [2, 3] read?
The IC50 was 2 nM.

CSCC[C@H](NC(=O)[C@H](Cc1ccc(O)cc1)NC(=O)[C@H](Cc1c[nH]cn1)NC(=O)[C@H](CC(=O)O)NC(=O)[C@H](CC(N)=O)NC(=O)[C@H](CC(N)=O)NC(=O)[C@H](Cc1ccc(O)cc1)NC(=O)[C@H](CC(=O)O)NC(=O)[C@H](Cc1ccc(O)cc1)NC(=O)[C@H](Cc1c[nH]c2ccccc12)NC(=O)CNC(=O)[C@H](C)NC(=O)[C@H](CO)NC(=O)[C@@H](NC(=O)[C@H](CC(C)C)NC(=O)CNC(=O)[C@@H](NC(C)=O)[C@@H](C)O)C(C)C)C(=O)N[C@@H](CCC(=O)O)C(=O)N[C@@H](Cc1ccccc1)C(=O)N[C@H](C(N)=O)[C@@H](C)O [JBS3198] (Ac-TGLVSAGWYDYNNDHYMEFT-NH2) was tested. Which IC50 [2, 3] did it give?
Its IC50 is 2.5 nM.

For CC(=O)N[C@H](C(=O)NCC(=O)N[C@@H](CC(C)C)C(=O)N[C@H](C(=O)N[C@@H](CO)C(=O)N[C@@H](C)C(=O)NCC(=O)N[C@@H](Cc1c[nH]c2ccccc12)C(=O)N[C@@H](Cc1ccc(O)cc1)C(=O)N[C@@H](CC(=O)O)C(=O)N[C@@H](Cc1ccc(O)cc1)C(=O)N[C@@H](CC(N)=O)C(=O)N[C@@H](Cc1ccccc1)C(=O)N[C@@H](CC(=O)O)C(=O)N[C@H](C(=O)N[C@@H](Cc1ccc(O)cc1)C(=O)N[C@@H](CCCNC(=N)N)C(=O)N[C@@H](CCC(=O)O)C(=O)N[C@@H](Cc1ccccc1)C(=O)N[C@H](C(N)=O)[C@@H](C)O)[C@@H](C)O)C(C)(C)C)[C@@H](C)O [JBS3202, Ac-TGL-Tle-SAGWYDYNFDTYREFT-NH2] (Ac-TGL[Tle]SAGWYDYNFDTYREFT-NH2), which IC50 [2, 3] is on record?
Its IC50 is 1.6 nM.
